Results from article PMC7257206, “A novel sphingosylphosphorylcholine and sphingosine-1-phosphate receptor 1 antagonist, KRO-105714, for alleviating atopic dermatitis” (Journal of Inflammation (London, England), 2020).

Experiments:
2C19 = molecular target: T1, 2C19 (Homo sapiens, UniProt P33261); assay: biochemical; design: CYP450 isoform inhibition assay, IC50; conditions: read-out: CYP450 IC50
T1 construct: gene CYP2C19

3A4 = molecular target: T2, 3A4 (Homo sapiens, UniProt P08684); assay: biochemical; design: CYP450 isoform inhibition assay, IC50; conditions: read-out: CYP450 IC50
T2 construct: gene CYP3A4
T2 sequence (P08684 whole entry, canonical isoform): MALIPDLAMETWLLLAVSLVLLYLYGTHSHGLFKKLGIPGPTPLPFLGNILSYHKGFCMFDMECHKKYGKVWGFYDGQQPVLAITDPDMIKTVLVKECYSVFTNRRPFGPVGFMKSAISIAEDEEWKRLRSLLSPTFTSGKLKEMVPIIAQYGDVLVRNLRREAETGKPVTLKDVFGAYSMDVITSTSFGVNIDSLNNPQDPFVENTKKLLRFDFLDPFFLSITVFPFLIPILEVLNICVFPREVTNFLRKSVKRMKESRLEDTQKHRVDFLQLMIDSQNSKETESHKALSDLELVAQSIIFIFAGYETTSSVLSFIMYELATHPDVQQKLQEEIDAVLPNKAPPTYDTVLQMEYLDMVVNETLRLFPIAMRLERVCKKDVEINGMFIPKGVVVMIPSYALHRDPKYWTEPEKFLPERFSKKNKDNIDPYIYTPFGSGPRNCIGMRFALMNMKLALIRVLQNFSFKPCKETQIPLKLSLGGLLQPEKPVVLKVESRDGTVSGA

hERG potassium channel [1] = molecular target: T3, hERG potassium channel (Homo sapiens, UniProt Q12809); assay: in vitro; design: hERG binding assay, [3H]astemizole displacement
T3 construct: gene KCNH2
T3 sequence (Q12809 whole entry): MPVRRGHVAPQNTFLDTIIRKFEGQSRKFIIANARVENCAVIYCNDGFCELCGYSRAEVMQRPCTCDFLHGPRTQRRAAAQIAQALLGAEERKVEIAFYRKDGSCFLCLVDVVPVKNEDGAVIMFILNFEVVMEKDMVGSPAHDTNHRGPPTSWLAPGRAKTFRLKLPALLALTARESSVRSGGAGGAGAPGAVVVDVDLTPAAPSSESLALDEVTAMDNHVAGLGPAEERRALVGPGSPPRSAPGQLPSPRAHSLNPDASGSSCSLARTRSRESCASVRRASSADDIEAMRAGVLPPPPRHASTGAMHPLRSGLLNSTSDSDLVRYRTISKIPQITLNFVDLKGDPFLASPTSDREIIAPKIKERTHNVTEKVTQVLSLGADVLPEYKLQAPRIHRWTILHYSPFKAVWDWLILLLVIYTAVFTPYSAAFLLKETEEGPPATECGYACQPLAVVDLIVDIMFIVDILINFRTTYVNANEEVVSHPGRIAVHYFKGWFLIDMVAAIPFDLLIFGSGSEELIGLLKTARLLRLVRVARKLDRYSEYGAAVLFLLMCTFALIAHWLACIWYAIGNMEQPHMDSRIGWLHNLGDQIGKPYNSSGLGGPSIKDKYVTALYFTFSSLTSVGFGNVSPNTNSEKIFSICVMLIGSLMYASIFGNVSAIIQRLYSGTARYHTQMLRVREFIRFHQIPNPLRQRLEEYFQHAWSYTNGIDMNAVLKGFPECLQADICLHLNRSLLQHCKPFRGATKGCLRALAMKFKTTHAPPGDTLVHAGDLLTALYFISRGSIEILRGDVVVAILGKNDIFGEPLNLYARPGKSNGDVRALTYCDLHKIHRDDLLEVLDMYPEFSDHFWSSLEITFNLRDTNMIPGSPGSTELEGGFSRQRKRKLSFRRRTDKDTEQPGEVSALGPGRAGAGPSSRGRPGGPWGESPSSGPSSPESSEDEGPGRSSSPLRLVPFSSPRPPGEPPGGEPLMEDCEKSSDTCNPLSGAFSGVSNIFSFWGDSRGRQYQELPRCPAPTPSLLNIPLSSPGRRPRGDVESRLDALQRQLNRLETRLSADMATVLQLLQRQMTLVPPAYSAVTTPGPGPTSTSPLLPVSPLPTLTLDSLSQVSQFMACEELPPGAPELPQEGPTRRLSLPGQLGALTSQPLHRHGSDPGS
Protocol: KRO-105714 also had no cardiotoxicity in the hERG potassium channel binding assay (IC50 > 10 μM) (Additional file 1: Table S1B).

2C9 = molecular target: T4, 2C9 (Homo sapiens, UniProt P11712); assay: biochemical
T4 construct: gene CYP2C9
T4 sequence (P11712 whole entry): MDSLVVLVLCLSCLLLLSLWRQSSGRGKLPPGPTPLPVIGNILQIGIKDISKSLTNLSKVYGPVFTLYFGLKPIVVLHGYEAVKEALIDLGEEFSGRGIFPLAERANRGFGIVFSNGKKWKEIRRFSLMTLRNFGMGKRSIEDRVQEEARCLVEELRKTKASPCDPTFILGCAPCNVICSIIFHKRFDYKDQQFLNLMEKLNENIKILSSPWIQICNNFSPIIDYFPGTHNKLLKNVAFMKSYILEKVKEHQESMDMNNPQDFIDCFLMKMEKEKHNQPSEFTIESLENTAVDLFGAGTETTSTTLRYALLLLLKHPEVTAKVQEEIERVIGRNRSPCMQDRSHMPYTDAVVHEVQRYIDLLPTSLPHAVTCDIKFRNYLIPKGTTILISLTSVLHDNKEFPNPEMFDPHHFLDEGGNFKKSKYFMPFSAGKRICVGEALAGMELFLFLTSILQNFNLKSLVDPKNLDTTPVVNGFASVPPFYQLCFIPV

2D6 = molecular target: T5, 2D6 (Homo sapiens, UniProt P10635); assay: biochemical; design: CYP450 isoform inhibition assay, IC50; conditions: read-out: CYP450 IC50
T5 construct: gene CYP2D6
T5 sequence (P10635 whole entry, canonical isoform): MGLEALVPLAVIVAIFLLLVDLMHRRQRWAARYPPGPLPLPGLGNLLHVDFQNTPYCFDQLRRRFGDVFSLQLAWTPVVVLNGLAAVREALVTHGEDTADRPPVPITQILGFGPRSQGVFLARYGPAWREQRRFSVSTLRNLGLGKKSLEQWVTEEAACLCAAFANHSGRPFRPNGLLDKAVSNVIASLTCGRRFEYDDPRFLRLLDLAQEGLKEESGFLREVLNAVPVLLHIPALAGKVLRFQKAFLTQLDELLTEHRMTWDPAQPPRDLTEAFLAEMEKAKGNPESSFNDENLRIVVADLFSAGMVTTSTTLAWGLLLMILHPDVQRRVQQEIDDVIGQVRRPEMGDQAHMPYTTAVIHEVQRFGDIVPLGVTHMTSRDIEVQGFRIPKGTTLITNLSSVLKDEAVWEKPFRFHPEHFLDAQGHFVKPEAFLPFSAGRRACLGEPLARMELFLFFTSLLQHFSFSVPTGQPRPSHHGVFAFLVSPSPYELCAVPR

1A2 = molecular target: T6, 1A2 (Homo sapiens, UniProt P05177); assay: biochemical; design: CYP450 isoform inhibition assay, IC50; conditions: read-out: CYP450 IC50
T6 construct: gene CYP1A2
T6 sequence (P05177 1-516): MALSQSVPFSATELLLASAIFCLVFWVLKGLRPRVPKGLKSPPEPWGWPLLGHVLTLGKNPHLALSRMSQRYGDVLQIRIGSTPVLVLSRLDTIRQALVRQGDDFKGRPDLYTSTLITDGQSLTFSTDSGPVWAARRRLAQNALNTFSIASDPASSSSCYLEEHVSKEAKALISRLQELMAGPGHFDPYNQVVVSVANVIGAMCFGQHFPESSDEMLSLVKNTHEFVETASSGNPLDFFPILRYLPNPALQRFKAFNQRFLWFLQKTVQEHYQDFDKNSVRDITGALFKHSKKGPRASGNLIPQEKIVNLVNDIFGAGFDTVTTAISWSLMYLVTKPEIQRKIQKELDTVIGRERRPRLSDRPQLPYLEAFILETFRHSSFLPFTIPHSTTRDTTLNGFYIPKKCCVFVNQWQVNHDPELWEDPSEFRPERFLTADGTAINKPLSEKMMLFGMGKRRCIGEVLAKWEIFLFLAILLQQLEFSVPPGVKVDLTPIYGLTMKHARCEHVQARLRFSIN

[2] = molecular target: T7, sphingosine-1-phosphate receptor 1 (S1P1) (Homo sapiens, UniProt P21453); assay: […]-GTPγS binding assay (SPC-stimulated) in membranes of HEK-293 cells stably expressing hS1P1; format: biochemical
T7 construct: gene S1PR1; hS1P1 stably expressed in HEK-293 cells (membrane pellets)
T7 sequence (P21453 whole entry): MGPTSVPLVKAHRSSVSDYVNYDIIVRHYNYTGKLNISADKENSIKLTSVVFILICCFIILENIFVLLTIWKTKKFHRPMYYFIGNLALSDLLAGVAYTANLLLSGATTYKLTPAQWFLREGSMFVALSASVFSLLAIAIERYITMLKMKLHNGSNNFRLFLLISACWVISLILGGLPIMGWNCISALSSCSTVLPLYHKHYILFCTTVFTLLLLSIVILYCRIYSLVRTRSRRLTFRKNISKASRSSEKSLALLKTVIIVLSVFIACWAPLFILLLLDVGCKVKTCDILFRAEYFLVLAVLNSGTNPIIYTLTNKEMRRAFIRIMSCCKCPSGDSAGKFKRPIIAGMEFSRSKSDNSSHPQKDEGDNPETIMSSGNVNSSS

hERG potassium channel [3] = molecular target: T3, hERG potassium channel; assay: biochemical

T1 sequence (P33261 whole entry, canonical isoform): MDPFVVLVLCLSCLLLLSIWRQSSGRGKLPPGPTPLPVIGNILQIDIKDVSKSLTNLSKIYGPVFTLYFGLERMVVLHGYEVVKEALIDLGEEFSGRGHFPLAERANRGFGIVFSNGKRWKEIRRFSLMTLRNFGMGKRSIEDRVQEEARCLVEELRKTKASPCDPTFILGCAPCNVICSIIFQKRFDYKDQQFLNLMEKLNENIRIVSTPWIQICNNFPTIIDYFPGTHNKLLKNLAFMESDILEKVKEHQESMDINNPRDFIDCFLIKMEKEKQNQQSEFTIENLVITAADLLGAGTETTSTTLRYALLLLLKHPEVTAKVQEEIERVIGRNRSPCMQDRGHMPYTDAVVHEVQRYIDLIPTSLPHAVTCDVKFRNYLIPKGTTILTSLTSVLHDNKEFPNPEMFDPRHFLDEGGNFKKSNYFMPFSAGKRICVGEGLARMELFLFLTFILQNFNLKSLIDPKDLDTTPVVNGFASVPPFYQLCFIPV

IC50 (2C19): > 10 µM
IC50 (3A4): > 10 µM
IC50 (2C9): > 10 µM
IC50 (2D6): > 10 µM
IC50 (1A2): > 10 µM
IC50 [2]: 0.0792 µM
SMILES: COc1ccccc1N1CCN(c2nc(NC(=O)C(C)(C)C)c(C(=O)c3ccccc3)s2)CC1 [KRO-105714]
inhibition at 10 µM (hERG potassium channel [1]; read-out: %-Inhibition/[3H]Astemizole -5): 45%
inhibition at 1 µM (hERG potassium channel [1]; read-out: %-Inhibition/[3H]Astemizole -6): 3%
IC50 (hERG potassium channel [3]): > 10 µM
